# Assay results reported in article PMC12643529 (ACS Infectious Diseases, 2025).
# Where two headings read alike, the source gives them in different places.
# How the values were obtained:
# [1] = test system: bloodstream form of T. brucei; set-up: method as in number not given; details: footnote c 'From ref', ref number not given; cited from earlier work
# [2] = test system: promastigote form of L. major; set-up: method as in number not given; details: promastigotes; footnote c 'From ref', ref number not given; cited from earlier work
# MRC-5 cells [3] = test system: MRC-5 cells; set-up: method as in number not given; details: footnote c 'From ref', ref number not given; cited from earlier work
# [4] = test system: F10T (hairpin duplex DNA); assay type: binding; details: oligonucleotide 200 nM
# [5] = test system: FEbr1T (T. brucei G-quadruplex); experiment: FRET melting assay, FEbr1T; assay type: binding; details: oligonucleotide 200 nM
# [6] = test system: F21T Na+ (human telomeric G-quadruplex, sodium buffer); assay type: binding; details: oligonucleotide 200 nM
# [7] = test system: Fmt6363T (human mitochondrial G-quadruplex); experiment: FRET melting assay, Fmt6363T; assay type: binding; details: oligonucleotide 200 nM
# [8] = test system: F21T K+ (human telomeric G-quadruplex, potassium buffer); assay type: binding; details: oligonucleotide 200 nM
# [9] = test system: FMycT (c-Myc promoter G4); experiment: FRET melting assay, FMycT; assay type: binding; details: oligonucleotide 200 nM
# [10] = test system: Fmt6363T (DNA, G4) AGGGACGCGGGCGGGGGATATAGGGT; experiment: FRET melting; details: K+ (10 mM KCl), 90 mM LiCl; 10 mM Li cacodylate; compound 10 µM, DNA 200 nM
# [11] = test system: FEbr1T (DNA, G4) GGGCAGGGGGTGATGGGGAGGAGCCAGGG; experiment: FRET melting; details: K+ (10 mM KCl), 90 mM LiCl; 10 mM Li cacodylate; compound 10 µM, DNA 200 nM
# [12] = test system: F21T (DNA, G4) GGGTTAGGGTTAGGGTTAGGG; experiment: FRET melting; details: 10 mM Li cacodylate, compound 10 µM, DNA 200 nM
# [13] = test system: promastigote form of L. major; experiment: MTT-based antileishmanial assay, promastigotes; assay type: cell-based, Leishmania major; details: for IC50: Leishmania major, promastigotes, 72 h, MTT, error as σ
# Protocol: The antileishmanial activity of the compounds against the promastigote form of L. major, the […] was determined using an MTT-based assay (Sigma-Aldrich). Stock solutions of the compounds were prepared in DMSO with the final DMSO percentage in each well maintained below 1%. 4 × 10^6 parasites per mL were incubated at 28 °C in 96-well plates (50 μL/well) either alone or in the presence of increasing concentrations of compounds DMSO for 72 h. After the incubation period, 10 μL of MTT (5 mg/mL) was added to each well, and the parasites were incubated for 4 h at 28 °C. Subsequently, cell lysis was performed using 50 μL/well of 20% SDS. […] Data were presented as the average of at least three independent measurements, each conducted under triplicate conditions. […] “single marker” […] S7
# other G4 sequences = experiment: FRET melting assay, other examined G4s; assay type: binding; details: ligand 10 μM; range over the remaining G4s
# Protocol: The stabilization of G4 structures was initially evaluated by using the Förster resonance energy transfer (FRET) melting assay. This analysis evaluated the binding of the compounds against four G4-forming oligonucleotides and a hairpin duplex sequence to determine both G4:duplex and G4:G4 selectivity.
# FRET melting assays were performed to assess ligand affinity for duplex and G-quadruplex DNA.
# proximity of the donor and quencher result in no observed fluorescence from FAM, since energy
# is transferred non-radiatively to TAMRA by FRET. As the temperature is raised and the secondary
# structure denatures, the fluorophores move further apart and the fluorescence signal increases.
# From the resulting curve, the characteristic melting temperature (Tmax, also referred to as Tm) is
# defined as the temperature which corresponds to the maxima of the first derivative of the
# normalised fluorescence signal. The change in melting temperature (ΔTm) induced by the presence
# of a small molecule ligand provides an indication of the ligand’s ability to stabilise the DNA
# co-workers 12 on an AriaMx qPCR instrument.
# min, before heating at 1 °C/min to 96 °C in 1 °C increments, followed by monitoring the
# fluorescence output at each increment for 1 min. The fluorescence emission of FAM was followed
# The final concentration of oligonucleotide was 200 nM in all cases. For F21T in Na+ conditions, […]
# [14] = test system: bloodstream form of T. brucei; experiment: alamarBlue (resazurin) antitrypanosomal assay; assay type: cell-based, Trypanosoma brucei; details: Trypanosoma brucei; bloodstream form, 72 h, alamarBlue/resazurin; error as σ
# BSF T. brucei parasites = experiment: CellTiter-Glo luminescent cell viability assay; assay type: cell-based; details: Trypanosoma brucei, 72 h, read-out: IC50 T. brucei (CellTiter-Glo)
# Protocol: Ten μL portion of Cell Titer Glo was then added to every well, and after 10 min of incubation at room temperature, the luminescence of the plates was recorded using the Infinite F200 plate reader (TECAN Austria, GmbH). […] Presented data are the mean value of three independent measurements, all of them conducted under triplicate conditions.
# MRC-5 cells [15] = experiment: alamarBlue cytotoxicity assay, MRC-5; assay type: cell-based; details: MRC5, human lung fibroblasts, 72 h
# [16] = test system: F10T (DNA, hairpin, hexaethylene glycol (HEG, [(-CH2CH2O-)6]) linker between 10 and 11) TATAGCTATATATAGCTATA; experiment: FRET melting; details: K+ (10 mM KCl), 90 mM LiCl; 10 mM Li cacodylate; compound 10 µM, DNA 200 nM
# [17] = test system: intracellular amastigote form of L. major; experiment: Luciferase assay, intracellular amastigotes in THP-1 macrophages; assay type: cell-based, Leishmania major; details: Leishmania major
# Protocol: The antileishmanial activity of the compounds against the intracellular form of L. major was evaluated using the Luciferase Assay System kit from Promega. THP-1 cells were seeded at a density of 3 × 10^5 cells/mL in 96-well plates (100 μL/well) and treated with 20 ng/mL PMA (phorbol 12-myristate 13-acetate, Sigma) for 48 h to induce differentiation. Postdifferentiation, the cells were washed, and fresh medium was added (100 μL/well) before being reincubated. Following an additional 24 h, the wells were washed, and 50 μL of L. major parasites at a density of 1.5 × 10^6 parasites/mL (suspended in RPMI-1640 medium 5% hiFBS and 5% penicillin/streptomycin) were added to the wells. The plates were then incubated at 35 °C in 5% CO2. After 24 h, the wells were washed three times with PBS, and fresh medium with increasing concentrations of compounds was added (100 μL/well). After another 72 h of incubation, the cells were then treated with 25 μL of lysis buffer and stored at −80 °C. Following 24 h, 25 μL of luciferase enzyme substrate was added to each well, and the luciferase activity of the amastigotes was determined using a TECAN Infinite F200 microplate reader. […] Data were presented as the average of at least three independent measurements, each conducted under triplicate conditions.
# Parasite and cell culturing […]
# Leishmania major (MHOM/IL/80/Friedlin) promastigotes and its derivative luminescent strain L. major LucRE9 with the luciferase gene integrated into the parasite genome (LUC) were cultured at 28 °C, 5 % CO2 in modified RPMI-1640 medium (Invitrogen, Carlsbad, CA) supplemented with 10 % hiFBS6, including […] blasticidin in the LucRE9 strain. 7 Parasites were maintained in culture in their […] growth phase (below 2 million T. brucei parasites per mL, ,10 million L. major parasites per mL for promastigotes experiments), and in the stationary phase , 20 million L. major parasites per mL for THP -1 infection experiments.
# MRC-5 cell line (human lung fibroblast) was grown in monolayer at 37 °C, 5 % CO2 in DMEM medium (1 g/L glucose) supplemented with 10% hiFBS, 100 U/mL penicillin, […] streptomycin and 2 mM L-glutamine.8
# THP-1 cells (human monocytic cell line) were maintained in RPMI-1640 medium supplemented with 10% heat-inactivated fetal bovine serum (hiFBS) and 5 % penicillin/streptomycin (37 °C, 5 % CO2, and 100 % humidity). […]
# [18] = test system: mt6363 (DNA, G4) AGGGACGCGGGCGGGGGATATAGGGT; experiment: CD titration; details: K+ (100 mM potassium phosphate); pH 7.4, 20 °C, DNA 5 µM
# HT-29 cells = experiment: alamarBlue antiproliferative assay, HT-29; assay type: cell-based, human; details: for IC50: Homo sapiens, HT-29, 72 h, alamarBlue
# HeLa cells = experiment: alamarBlue antiproliferative assay, HeLa; assay type: cell-based, human; details: for IC50: Homo sapiens, HeLa, 72 h, alamarBlue
# [19] = test system: telo23 (DNA, G4) TAGGGTTAGGGTTAGGGTTAGGG; experiment: CD titration; details: K+ (100 mM potassium phosphate); pH 7.4, 20 °C, DNA 5 µM
# mt6363 G4 = experiment: UV-vis absorbance titration; assay type: binding, human; details: ligand 10 μM, 100 mM potassium phosphate, pH 7.4; numbers only in Figure 6
# Protocol: Furthermore, the analysis confirmed its selectivity for G4 structures over duplex DNA.
# 6 (A) Equilibrium binding constants calculated for compounds 2b and 2c with several G-quadruplexes (telo23, Ebr1, and mt6363) and a duplex DNA (ds26) sequence. (B) UV–vis titration of 2b with telo23, mt6363, Ebr1, and ds26. Buffer = 100 mM potassium phosphate, pH 7.4. Ligand concentration: 10 μM. […]
# oligonucleotides were at a concentration of 5 µM in potassium phosphate buffer (100 mM, pH 7.4). Data processing was carried out using Python and Prism 10 (GraphPad Software) with a 4-point second order smoothing polynomial applied to all spectra. Observed ellipticities were converted to molar ellipticity.
# Absorbance spectra were recorded on a Cary 60 UV-Visible spectrophotometer using a room-light immune fibre optic probe with 10 mm path length. The UV-Vis spectra were recorded between 700 – 300 nm and were corrected for background and buffer absorbance.
# In the titrations, the concentration of ligand was fixed at 10 µM in an initial volume of 500 µL in potassium phosphate buffer (100 mM, pH 7.4). […]
# Table S1. Synthesis and photophysical data in acetonitrile solution (absorption, λabs, fluorescence emission maxima, λfluo, molar absorptivity, Ɛ and fluorescence quantum yield, ɸF) for the 2-ethenyl-benzothiazolium derivatives 2a-j. […]
# THP-1 cells = experiment: alamarBlue cytotoxicity assay, PMA-differentiated THP-1; assay type: cell-based, human; details: Homo sapiens, PMA-differentiated THP-1, 72 h
# [20] = test system: Ebr1 (DNA, G4) GGGCAGGGGGTGATGGGGAGGAGCCAGGG; experiment: CD titration; details: K+ (100 mM potassium phosphate); pH 7.4, 20 °C, DNA 5 µM
# [21] = test system: FMycT (DNA, G4) TTGAGGGTGGGTAGGGTGGGTAA; experiment: FRET melting; details: K+ (1 mM KCl), 99 mM LiCl; 10 mM Li cacodylate; compound 10 µM, DNA 200 nM
SMILES,ΔTm [10] [°C],ΔTm [11] [°C],"ΔTm ([12]; K+ (10 mM KCl), 90 mM LiCl) [°C]","ΔTm F10T ([4]; ligand 10 μM, 10 mM KCl) [°C]",IC50 [13] [nM],IC50 [14] [nM],IC50 (MRC-5 cells [15]) [nM],ΔTm [16] [°C],"ΔTm FEbr1T ([5]; ligand 10 μM, 10 mM KCl) [°C]","ΔTm F21T Na+ ([6]; ligand 10 μM, 100 mM NaCl) [°C]","ΔTm Fmt6363T ([7]; ligand 10 μM, 10 mM KCl) [°C]","ΔTm F21T K+ ([8]; ligand 10 μM, 10 mM KCl) [°C]","ΔTm FMycT ([9]; ligand 10 μM, 1 mM KCl) [°C]",IC50 (HT-29 cells) [nM],IC50 (HeLa cells) [nM],other results
"C[n+]1ccc(-c2c3nc(c(-c4cc[n+](C)cc4)c4ccc([nH]4)c(-c4cc[n+](C)cc4)c4ccc([nH]4)c(-c4cc[n+](C)cc4)c4nc2C=C4)C=C3)cc1 [TMPyP4, reference compound]",–,–,–,–,–,–,–,–,–,–,–,–,–,–,–,IC50 [1]: > 10000 nM; IC50 [2]: 20800 ± 4860 nM; IC50 (MRC-5 cells [3]): > 25000 nM; ΔTm F10T ([4]; positive control at 1 μM): 1.7 ± 0.1 °C; ΔTm FEbr1T ([5]; positive control at 1 μM): 12.4 ± 0.9 °C; ΔTm F21T Na+ ([6]; positive control at 1 μM): 10.4 ± 0.4 °C; ΔTm Fmt6363T ([7]; positive control at 1 μM): 7.1 ± 0.4 °C; ΔTm F21T K+ ([8]; positive control at 1 μM): 16.4 ± 0.4 °C; ΔTm FMycT ([9]; positive control at 1 μM): 12.6 ± 1.1 °C
"Cc1ccc2c(c1)sc(-c1ccc(N(C)C)cc1)[n+]2C [ThT, Thioflavin T, reference compound]",2.9 ± 0.4,4.5 ± 0.7,5.5 ± 0.2,0.1 ± 0.1,23 ± 0.2,4.7 ± 0.3,183 ± 38,0.1 ± 0.1,4.5 ± 0.7,1.4 ± 0.2,2.9 ± 0.4,5.5 ± 0.2,15.0,–,–,"ΔTm for the other examined G4 sequences (other G4 sequences): 1.4–5.5 °C; IC50 (BSF T. brucei parasites; BSF parasites, luminescence): 62 ± 3 nM"
CN(C)c1ccc(/C=C/c2sc3ccccc3[n+]2C)cc1.[I-] [compound 2b],19.8 ± 0.4,–,–,2.3 ± 0.2,–,0.019 ± 0.0053,–,2.3 ± 0.2,13.1,9.1 ± 0.3,19.8,13.1 ± 0.5,8.6 ± 0.9,6560 ± 490,9280 ± 770,"IC50 ([17]; THP-1, intracellular amastigotes): 0.48 nM; IC50 ([17]; intracellular amastigotes in THP-1 macrophages, 72 h, luciferase): 0.484 ± 0.617 nM; binding [18]: yes; binding [19]: yes; binding affinity (equilibrium binding constant) (mt6363 G4): higher affinity for the mt6363 G4 structure compared with the other G4 sequences; IC50 (BSF T. brucei parasites): 0.55 ± 0.23 nM; IC50 (THP-1 cells): 480 ± 110 nM; binding [20]: yes"
C[n+]1c(/C=C/c2ccc(-c3ccc(-c4ccc(N(c5ccccc5)c5ccccc5)cc4)cc3)o2)sc2ccccc21.[I-] [compound 2d],–,20.5 ± 1.3,18.5 ± 1.9,1.0 ± 0.1,330 ± 17,10 ± 5,3240 ± 140,–,20.5,22.9 ± 0.9,18.5 ± 0.9,18.5,16.7 ± 0.7,3790 ± 130,5280 ± 110,selectivity index (SI) HT-29 (HT-29 cells; SI = IC50 MRC-5/IC50 HT-29): 0.86; selectivity index (SI) HeLa (HeLa cells; SI = IC50 MRC-5/IC50 HeLa): 0.62; ΔTm ([12]; Na+ (100 mM NaCl)): 22.9 ± 0.9 °C; selectivity index (SI) L. major ([13]; SI = IC50 MRC-5/IC50 L. major promastigotes): 9.8; ΔTm [21]: 16.7 ± 0.7 °C
